Source: patent publication US20210382058A1, “PATIENT SELECTION FOR TREATMENT OF MYC POSITIVE CANCERS WITH INDENOISOQUINOLINES” (Purdue Research Foundation, priority 2020, published 2021)
Like-named read-outs stand apart in the source and are kept apart here.

Experiments:
human topoisomerase I = target: T1, human topoisomerase I (Homo sapiens, UniProt P11387); details: relative topoisomerase I inhibition levels, previously determined, six levels (0 - 5, +++++ = 5); cited from earlier work
T1 sequence (P11387 1-765): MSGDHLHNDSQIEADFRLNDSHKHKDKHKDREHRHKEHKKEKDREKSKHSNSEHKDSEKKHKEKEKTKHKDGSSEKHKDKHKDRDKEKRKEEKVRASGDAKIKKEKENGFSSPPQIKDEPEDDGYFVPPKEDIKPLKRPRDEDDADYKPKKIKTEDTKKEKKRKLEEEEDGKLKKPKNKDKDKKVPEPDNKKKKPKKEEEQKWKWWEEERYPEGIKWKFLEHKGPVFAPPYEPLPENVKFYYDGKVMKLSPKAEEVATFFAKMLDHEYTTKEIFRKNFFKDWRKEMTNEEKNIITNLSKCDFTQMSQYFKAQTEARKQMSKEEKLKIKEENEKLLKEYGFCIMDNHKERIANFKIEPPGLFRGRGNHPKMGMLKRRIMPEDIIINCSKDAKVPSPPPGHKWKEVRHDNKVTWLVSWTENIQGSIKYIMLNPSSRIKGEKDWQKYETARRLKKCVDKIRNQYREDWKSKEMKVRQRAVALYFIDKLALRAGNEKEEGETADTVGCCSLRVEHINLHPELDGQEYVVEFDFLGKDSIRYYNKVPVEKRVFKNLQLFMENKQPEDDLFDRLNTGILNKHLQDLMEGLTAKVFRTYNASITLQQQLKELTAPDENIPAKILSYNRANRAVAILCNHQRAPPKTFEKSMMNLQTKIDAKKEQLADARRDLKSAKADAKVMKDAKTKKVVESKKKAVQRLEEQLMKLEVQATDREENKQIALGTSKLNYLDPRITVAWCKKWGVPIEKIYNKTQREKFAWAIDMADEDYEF

NCI-60 cancer cell lines = test: NCI-60 cancer cell line drug screen (GI50, MGM); type: cell-based, human; details: Homo sapiens; for GI50: read-out: Antiproliferative Activities [GI50 (μM)]
Method: Cancer cells were incubated with the test compounds at five concentrations ranging from 100 μM to 10 nM for 48 h. […] The approximate average of GI50 values across the entire panel of NCI-60 cancer cell lines for each compound was recorded as the MGM value.

[1] = system: MYC protein expression in MCF-7 breast cancer cells; test: Western blotting of MYC protein level in MCF-7 cells; type: cell-based, human; details: Homo sapiens, MCF7; western blotting, MCF-7 cells, 0.5, 1, 2, and 4 μM, 24 hours; read-out: MYC Inhibition
Method in brief: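 MCF-7 cells were exposed to compounds at 0.5, 1, 2 and 4 μM for 24 hours at 37° C. MYC was detected by immunoblot with ECL, using rabbit anti-MYC (1:1000) and anti-GAPDH (1:2000) as loading control.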

CN(C)CCCn1c2c(c3cccnc3c1=O)C(=O)c1ccccc1-2 [Compound 20]
Top1 Inhibiton (human topoisomerase I): +++ (strong inhibition, +++, MYC expression inhibited at 0.5 to 1.0 μM)
GI50 (NCI-60 cancer cell lines; 786-0, Renal Cancer, 786-0): 1.16 µM
GI50 (NCI-60 cancer cell lines; A549, Non-Small Cell Lung Cancer, A549/ATCC): 0.59 µM
GI50 (NCI-60 cancer cell lines; ACHN, Renal Cancer, ACHN): 0.29 µM
GI50 (NCI-60 cancer cell lines; BT-549, Breast Cancer, BT-549): 1.67 µM
GI50 (NCI-60 cancer cell lines; CAKI-1, Renal Cancer, CAKI-1): 0.57 µM
GI50 (NCI-60 cancer cell lines; CCRF-CEM, Leukemia, CCRF-CEM): 1.37 µM
GI50 (NCI-60 cancer cell lines; COLO 205, Colon Cancer, COLO 205): 0.47 µM
GI50 (NCI-60 cancer cell lines; DU-145, Prostate Cancer, DU-145): 1.89 µM
GI50 (NCI-60 cancer cell lines; HCC 2998, Colon Cancer, HCC-2998): 2.17 µM
GI50 (NCI-60 cancer cell lines; HCT-15, Colon Cancer, HCT-15): 1.03 µM
GI50 (NCI-60 cancer cell lines; HCT-116, Colon Cancer, HCT-116): 0.44 µM
GI50 (NCI-60 cancer cell lines; HL-60, Leukemia, HL-60(TB)): 1.8 µM
GI50 (NCI-60 cancer cell lines; HOP-62, Non-Small Cell Lung Cancer, HOP-62): 1.25 µM
GI50 (NCI-60 cancer cell lines; HOP-92, Non-Small Cell Lung Cancer, HOP-92): 1.42 µM
GI50 (NCI-60 cancer cell lines; HT-29, Colon Cancer, HT29): 1.01 µM
GI50 (NCI-60 cancer cell lines; Hs-578T, Breast Cancer, HS 578T): 3.08 µM
GI50 (NCI-60 cancer cell lines; IGROV-1, Ovarian Cancer, IGROV1): 1.91 µM
GI50 (NCI-60 cancer cell lines; K562, Leukemia, K-562): 1.42 µM
GI50 (NCI-60 cancer cell lines; KM12, Colon Cancer, KM12): 1.61 µM
GI50 (NCI-60 cancer cell lines; LOX IMVI, Melanoma, LOX IMVI): 0.81 µM
GI50 (NCI-60 cancer cell lines; Leukemia, SR): 0.31 µM
GI50 (NCI-60 cancer cell lines; MCF7, Breast Cancer, MCF7): 0.37 µM
GI50 (NCI-60 cancer cell lines; MDA-MB-231, Breast Cancer, MDA-MB-231/ATCC): 2.58 µM
GI50 (NCI-60 cancer cell lines; MDA-MB-435, Melanoma, MDA-MB-435): 1.93 µM
GI50 (NCI-60 cancer cell lines; MDA-MB-468, Breast Cancer, MDA-MB-468): 1.57 µM
GI50 (NCI-60 cancer cell lines; MOLT-4, Leukemia, MOLT-4): 0.29 µM
GI50 (NCI-60 cancer cell lines; Melanoma, M14): 1.57 µM
GI50 (NCI-60 cancer cell lines; NCI-H23, Non-Small Cell Lung Cancer, NCI-H23): 1.86 µM
GI50 (NCI-60 cancer cell lines; NCI-H226, Non-Small Cell Lung Cancer, NCI-H226): 1.32 µM
GI50 (NCI-60 cancer cell lines; NCI-H322M, Non-Small Cell Lung Cancer, NCI-H322M): 2.47 µM
GI50 (NCI-60 cancer cell lines; NCI-H460, Non-Small Cell Lung Cancer, NCI-H460): 0.41 µM
GI50 (NCI-60 cancer cell lines; NCI-H522, Non-Small Cell Lung Cancer, NCI-H522): 1.84 µM
GI50 (NCI-60 cancer cell lines; OVCAR-3, Ovarian Cancer, OVCAR-3): 2.41 µM
GI50 (NCI-60 cancer cell lines; OVCAR-4, Ovarian Cancer, OVCAR-4): 1.93 µM
GI50 (NCI-60 cancer cell lines; OVCAR-5, Ovarian Cancer, OVCAR-5): 2.44 µM
GI50 (NCI-60 cancer cell lines; OVCAR-8, Ovarian Cancer, OVCAR-8): 0.95 µM
GI50 (NCI-60 cancer cell lines; Ovarian Cancer, NCl/ADR-RES): 2.72 µM
GI50 (NCI-60 cancer cell lines; Prostate Cancer, PC-3): 2.05 µM
GI50 (NCI-60 cancer cell lines; RPMI-8226, Leukemia, RPMI-8226): 1.84 µM
GI50 (NCI-60 cancer cell lines; RXF 393, Renal Cancer, RXF 393): 2.31 µM
GI50 (NCI-60 cancer cell lines; Renal Cancer, U0-31): 0.57 µM
GI50 (NCI-60 cancer cell lines; SF-268, CNS Cancer, SF-268): 2.15 µM
GI50 (NCI-60 cancer cell lines; SF-295, CNS Cancer, SF-295): 0.75 µM
GI50 (NCI-60 cancer cell lines; SF-539, CNS Cancer, SF-539): 0.85 µM
GI50 (NCI-60 cancer cell lines; SK-MEL-2, Melanoma, SK-MEL-2): 3.92 µM
GI50 (NCI-60 cancer cell lines; SK-MEL-5, Melanoma, SK-MEL-5): 1 µM
GI50 (NCI-60 cancer cell lines; SK-MEL-28, Melanoma, SK-MEL-28): 1.56 µM
GI50 (NCI-60 cancer cell lines; SK-OV-3, Ovarian Cancer, SK-OV-3): 2.22 µM
GI50 (NCI-60 cancer cell lines; SN12C, Renal Cancer, SN12C): 1.12 µM
GI50 (NCI-60 cancer cell lines; SNB-19, CNS Cancer, SNB-19): 1.75 µM
GI50 (NCI-60 cancer cell lines; SNB-75, CNS Cancer, SNB-75): 0.66 µM
GI50 (NCI-60 cancer cell lines; SW-620, Colon Cancer, SW-620): 0.46 µM
GI50 (NCI-60 cancer cell lines; T47D, Breast Cancer, T-47D): 2.04 µM
GI50 (NCI-60 cancer cell lines; TK-10, Renal Cancer, TK-10): 3.02 µM
GI50 (NCI-60 cancer cell lines; U-251, CNS Cancer, U251): 1.05 µM
GI50 (NCI-60 cancer cell lines; UACC-62, Melanoma, UACC-62): 1.3 µM
GI50 (NCI-60 cancer cell lines; UACC-257, Melanoma, UACC-257): 2.02 µM
mean GI50 across NCI-60 panel (MGM) (NCI-60 cancer cell lines; average of GI50 values across the entire panel of NCI-60 cancer cell lines): 1.26 µM
minimal effective concentration [1]: 4 µM
